Measured values from PubChem BioAssay AID256 (DTP/NCI, 2004).
Inconclusive results and toxic doses are left out.

Test system: CD2F1 mice, L1210 leukemia ip, survival T/C
Assay: NCI In Vivo Anticancer Drug Screen. Data for tumor model L1210 Leukemia (intraperitoneal) in CD2F1 (CDF1) mice
Settings: higher = longer survival
Procedure, shortened: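 In this screen, transplantable tumors were grown in mice given either the compound or its vehicle. Results were expressed as the treated measurement relative to the control measurement.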

[1] = endpoint: mean survival time, dose: 100.0 mg/kg/injection, schedule: Q04DX003 (ip), vehicle: saline with Tween-80
[2] = endpoint: mean survival time, dose: 200.0 mg/kg/injection, schedule: Q04DX003 (ip), vehicle: saline with Tween-80
[3] = endpoint: mean survival time, dose: 400.0 mg/kg/injection, schedule: Q04DX003 (ip), vehicle: saline with Tween-80
[4] = endpoint: mean survival time, dose: 100.0 mg/kg/injection, schedule: Q01DX009 (ip), vehicle: saline with Tween-80
[5] = endpoint: mean survival time, dose: 200.0 mg/kg/injection, schedule: Q01DX009 (ip), vehicle: saline with Tween-80
[6] = endpoint: mean survival time, dose: 400.0 mg/kg/injection, schedule: Q01DX009 (ip), vehicle: saline with Tween-80
[7] = endpoint: mean survival time, dose: 100.0 mg/kg/injection, schedule: Q01DX001 (ip), vehicle: saline with Tween-80
[8] = endpoint: mean survival time, dose: 200.0 mg/kg/injection, schedule: Q01DX001 (ip), vehicle: saline with Tween-80
[9] = endpoint: mean survival time, dose: 400.0 mg/kg/injection, schedule: Q01DX001 (ip), vehicle: saline with Tween-80
[10] = endpoint: mean survival time, dose: 50.0 mg/kg/injection, schedule: Q01DX009 (ip), vehicle: saline with Tween-80
[11] = endpoint: mean survival time, dose: 75.0 mg/kg/injection, schedule: Q01DX001 (ip), vehicle: other

## CCCCC1CCC(NC(=O)Nc2ccccc2)CC1 (centres undefined)
[1]
  T/C: 113 % of control
[2]
  T/C: 109 % of control
[3]
  T/C: 105 % of control

## CCOC(=O)NC(=O)CC#N
[1]
  T/C: 101 % of control
[2]
  T/C: 93 % of control
[3]
  T/C: 103 % of control

## O=C(C[n+]1csc2ccccc21)c1ccccc1
[4]
  T/C: 106 % of control
[1]
  T/C: 97 % of control
[5]
  T/C: 92 % of control
[2]
  T/C: 106 % of control
[6]
  T/C: 87 % of control
[3]
  T/C: 109 % of control

## CC(=O)c1ccc[n+](Cc2ccc([N+](=O)[O-])cc2)c1
endpoint: mean survival time, dose: 25.0 mg/kg/injection, schedule: Q01DX009 (ip), vehicle: saline
  T/C: 117 % of control
endpoint: mean survival time, dose: 50.0 mg/kg/injection, schedule: Q01DX009 (ip), vehicle: saline
  T/C: 109 % of control
endpoint: mean survival time, dose: 100.0 mg/kg/injection, schedule: Q01DX009 (ip), vehicle: saline
  T/C: 108 % of control

## CN(C)C=Nc1ccc(C#N)cc1
endpoint: mean survival time, dose: 50.0 mg/kg/injection, schedule: Q01DX001 (ip), vehicle: saline
  T/C: 97 % of control
endpoint: mean survival time, dose: 100.0 mg/kg/injection, schedule: Q01DX001 (ip), vehicle: saline
  T/C: 97 % of control

## O=C1OC2CC1CCC2Br (centres undefined)
[1]
  T/C: 94 % of control
[2]
  T/C: 94 % of control
[3]
  T/C: 97 % of control

## BrC1C(Br)C2C3C=CC(c4ccccc43)C12 (centres undefined)
[4]
  T/C: 91 % of control
[1]
  T/C: 98 % of control
[5]
  T/C: 94 % of control
[2]
  T/C: 98 % of control
[6]
  T/C: 89 % of control
[3]
  T/C: 96 % of control

## Nc1nc(N)c2ncn(Cc3ccccc3)c2n1
[1]
  T/C: 98 % of control
[2]
  T/C: 93 % of control
[3]
  T/C: 100 % of control

## O=C1c2ccccc2SCCC1C(O)c1ccccc1 (centres undefined)
[7]
  T/C: 94 % of control
[8]
  T/C: 94 % of control
[9]
  T/C: 94 % of control

## CCCc1cc(CCC)nc(NNc2nc(CCC)cc(CCC)n2)n1
[1]
  T/C: 96 % of control
[2]
  T/C: 94 % of control
[3]
  T/C: 96 % of control

## NC1CC(CO)C(O)C1O (centres undefined)
endpoint: mean survival time, dose: 75.0 mg/kg/injection, schedule: Q01DX001 (ip), vehicle: saline
  T/C: 101 % of control
endpoint: mean survival time, dose: 150.0 mg/kg/injection, schedule: Q01DX001 (ip), vehicle: saline
  T/C: 103 % of control
endpoint: mean survival time, dose: 300.0 mg/kg/injection, schedule: Q01DX001 (ip), vehicle: saline
  T/C: 107 % of control

## CC(C)(C)c1cc(Cc2cc(C(C)(C)C)c(O)c(C(C)(C)C)c2)cc(C(C)(C)C)c1O
[7]
  T/C: 91 % of control
[8]
  T/C: 91 % of control
[9]
  T/C: 103 % of control

## CC(=O)Nn1cnc2c(SCc3ccccc3)ncnc21
endpoint: mean survival time, dose: 177.0 mg/kg/injection, schedule: Q01DX001 (ip), vehicle: saline
  T/C: 95 % of control
endpoint: mean survival time, dose: 266.0 mg/kg/injection, schedule: Q01DX001 (ip), vehicle: saline
  T/C: 95 % of control
endpoint: mean survival time, dose: 400.0 mg/kg/injection, schedule: Q01DX001 (ip), vehicle: saline
  T/C: 97 % of control
endpoint: mean survival time, dose: 600.0 mg/kg/injection, schedule: Q01DX001 (ip), vehicle: saline
  T/C: 96 % of control

## N[C@@H]1CCCC[C@H]1N.O=C([O-])C(=O)[O-].[Pt+4]
endpoint: mean survival time, dose: 0.78 mg/kg/injection, schedule: Q04DX003 (ip), vehicle: saline
  T/C: 120 % of control

## O=C1NC(=O)c2ccc3c4c(ccc1c24)C(=O)NC3=O
endpoint: mean survival time, dose: 15.5 mg/kg/injection, schedule: Q01DX009 (ip), vehicle: saline with Tween-80
  T/C: 100 % of control
endpoint: mean survival time, dose: 31.0 mg/kg/injection, schedule: Q01DX009 (ip), vehicle: saline with Tween-80
  T/C: 94 % of control
endpoint: mean survival time, dose: 62.0 mg/kg/injection, schedule: Q01DX009 (ip), vehicle: saline with Tween-80
  T/C: 100 % of control
endpoint: mean survival time, dose: 62.5 mg/kg/injection, schedule: Q01DX009 (ip), vehicle: saline with Tween-80
  T/C: 98 % of control

## C=CCOCC(O)CNc1ccccc1 (centres undefined)
[10]
  T/C: 101 % of control
[4]
  T/C: 101 % of control
[5]
  T/C: 96 % of control

## CC1CC2C3(C1)CC(C(=O)OC3=O)C2(C)C (centres undefined)
[11]
  T/C: 94 % of control
endpoint: mean survival time, dose: 150.0 mg/kg/injection, schedule: Q01DX001 (ip), vehicle: other
  T/C: 92 % of control
endpoint: mean survival time, dose: 300.0 mg/kg/injection, schedule: Q01DX001 (ip), vehicle: other
  T/C: 92 % of control

## CCOC(=O)CN(c1c(C)cc([N+](=O)[O-])c2ccccc12)S(=O)(=O)c1ccccc1
[7]
  T/C: 97 % of control
[8]
  T/C: 94 % of control
[9]
  T/C: 96 % of control

## O=C(O)CNCNCC(=O)O
endpoint: mean survival time, dose: 100.0 mg/kg/injection, schedule: Q04DX002 (ip), vehicle: saline
  T/C: 90 % of control
endpoint: mean survival time, dose: 200.0 mg/kg/injection, schedule: Q04DX002 (ip), vehicle: saline
  T/C: 86 % of control

## CC(=O)OC1C(NC(=O)N(CCCl)N=O)C(OC(C)=O)C(OC(C)=O)C(NC(=O)N(CCCl)N=O)C1OC(C)=O (centres undefined)
endpoint: mean survival time, dose: 20.0 mg/kg/injection, schedule: Q01DX001 (ip), vehicle: saline with Tween-80
  T/C: 124 % of control
endpoint: mean survival time, dose: 60.0 mg/kg/injection, schedule: Q01DX001 (ip), vehicle: saline with Tween-80
  T/C: 164 % of control
endpoint: mean survival time, dose: 90.0 mg/kg/injection, schedule: Q01DX001 (ip), vehicle: saline with Tween-80
  T/C: 160 % of control
endpoint: mean survival time, dose: 130.0 mg/kg/injection, schedule: Q01DX001 (ip), vehicle: saline with Tween-80
  T/C: 174 % of control
[8]
  T/C: 168 % of control
endpoint: mean survival time, dose: 300.0 mg/kg/injection, schedule: Q01DX001 (ip), vehicle: saline with Tween-80
  T/C: 218 % of control

## COc1cc(Cl)ccc1NC(=O)Nc1ccccc1C
endpoint: mean survival time, dose: 25.0 mg/kg/injection, schedule: Q04DX002 (ip), vehicle: saline with Tween-80
  T/C: 90 % of control
endpoint: mean survival time, dose: 50.0 mg/kg/injection, schedule: Q04DX002 (ip), vehicle: saline with Tween-80
  T/C: 94 % of control
endpoint: mean survival time, dose: 100.0 mg/kg/injection, schedule: Q04DX002 (ip), vehicle: saline with Tween-80
  T/C: 94 % of control
endpoint: mean survival time, dose: 200.0 mg/kg/injection, schedule: Q04DX002 (ip), vehicle: saline with Tween-80
  T/C: 90 % of control
endpoint: mean survival time, dose: 400.0 mg/kg/injection, schedule: Q04DX002 (ip), vehicle: saline with Tween-80
  T/C: 90 % of control

## c1ccc(C(Nc2ncnc3nncnc23)c2ccccc2)cc1
[11]
  T/C: 94 % of control

## ClCCOCC1CO1 (centres undefined)
endpoint: mean survival time, dose: 150.0 mg/kg/injection, schedule: Q04DX003 (ip), vehicle: saline
  T/C: 101 % of control
endpoint: mean survival time, dose: 225.0 mg/kg/injection, schedule: Q04DX003 (ip), vehicle: saline
  T/C: 104 % of control
endpoint: mean survival time, dose: 335.0 mg/kg/injection, schedule: Q04DX003 (ip), vehicle: saline
  T/C: 96 % of control

## Cc1cn(C2CC3O[P@@](=S)(Nc4ccccc4)OCC3O2)c(=O)[nH]c1=O (some centres undefined)
endpoint: median survival time, dose: 11.5 mg/kg/injection, schedule: Q01DX005 (ip), vehicle: saline with Tween-80
  T/C: 108 % of control
endpoint: median survival time, dose: 23.0 mg/kg/injection, schedule: Q01DX005 (ip), vehicle: saline with Tween-80
  T/C: 103 % of control
endpoint: median survival time, dose: 46.0 mg/kg/injection, schedule: Q01DX005 (ip), vehicle: saline with Tween-80
  T/C: 98 % of control

## Cc1onc(-c2ccccc2)c1C(=O)O
[1]
  T/C: 101 % of control
[2]
  T/C: 93 % of control
[3]
  T/C: 89 % of control

## O=C([S-])N1CCCCC1.O=C([S-])N1CCCCC1.[Ni+2]
endpoint: mean survival time, dose: 12.5 mg/kg/injection, schedule: Q01DX009 (ip), vehicle: saline with Tween-80
  T/C: 96 % of control
endpoint: mean survival time, dose: 12.5 mg/kg/injection, schedule: Q04DX003 (ip), vehicle: saline sonified
  T/C: 100 % of control
endpoint: mean survival time, dose: 25.0 mg/kg/injection, schedule: Q01DX009 (ip), vehicle: saline with Tween-80
  T/C: 93 % of control
endpoint: mean survival time, dose: 25.0 mg/kg/injection, schedule: Q04DX003 (ip), vehicle: saline sonified
  T/C: 113 % of control
[10]
  T/C: 106 % of control
endpoint: mean survival time, dose: 50.0 mg/kg/injection, schedule: Q04DX003 (ip), vehicle: saline sonified
  T/C: 92 % of control

## CC(SC(C)c1ccccc1)c1ccccc1 (centres undefined)
[4]
  T/C: 98 % of control
[1]
  T/C: 90 % of control
[5]
  T/C: 98 % of control
[2]
  T/C: 93 % of control
[6]
  T/C: 102 % of control
[3]
  T/C: 90 % of control

## CSc1ccccc1C1=CCCCC1
endpoint: mean survival time, dose: 100.0 mg/kg/injection, schedule: Q04DX003 (ip), vehicle: saline
  T/C: 95 % of control
endpoint: mean survival time, dose: 200.0 mg/kg/injection, schedule: Q04DX003 (ip), vehicle: saline
  T/C: 93 % of control
endpoint: mean survival time, dose: 400.0 mg/kg/injection, schedule: Q04DX003 (ip), vehicle: saline
  T/C: 98 % of control

## C[n+]1ccc(Nc2ccc(NC(=O)c3ccc(Nc4ccnc5ccc([N+](=O)[O-])cc45)cc3[N+](=O)[O-])cc2)cc1
[7]
  T/C: 96 % of control
[8]
  T/C: 95 % of control
[9]
  T/C: 93 % of control

## O=C1Cc2cc3c(cc2C=C2CCCN12)OCO3
endpoint: mean survival time, dose: 25.0 mg/kg/injection, schedule: Q01DX009 (ip), vehicle: water
  T/C: 103 % of control
endpoint: mean survival time, dose: 50.0 mg/kg/injection, schedule: Q01DX009 (ip), vehicle: water
  T/C: 97 % of control
endpoint: mean survival time, dose: 100.0 mg/kg/injection, schedule: Q01DX009 (ip), vehicle: water
  T/C: 103 % of control
endpoint: mean survival time, dose: 400.0 mg/kg/injection, schedule: Q01DX009 (ip), vehicle: water
  T/C: 113 % of control
